Experimental findings from ChEMBL document CHEMBL4507285, “Data for DCP probe MRL-SYKi” (2021) are described below.

Active and inactive are the calls of the source. No cut-off for these calls is given here. A value given as a limit tells only on which side of the number the result lay.

Assay [1] addresses Serine/threonine-protein kinase Nek7 (Homo sapiens) (UniProt Q8TDX7). The following applies: Compound concentration 100.0 nM.
For assay [2], the target named is Ribosomal protein S6 kinase alpha-1 (Homo sapiens) (UniProt Q15418). The following applies: Compound concentration 100.0 nM.
Sequence of Ribosomal protein S6 kinase alpha-1 (Homo sapiens) (Q15418 whole entry): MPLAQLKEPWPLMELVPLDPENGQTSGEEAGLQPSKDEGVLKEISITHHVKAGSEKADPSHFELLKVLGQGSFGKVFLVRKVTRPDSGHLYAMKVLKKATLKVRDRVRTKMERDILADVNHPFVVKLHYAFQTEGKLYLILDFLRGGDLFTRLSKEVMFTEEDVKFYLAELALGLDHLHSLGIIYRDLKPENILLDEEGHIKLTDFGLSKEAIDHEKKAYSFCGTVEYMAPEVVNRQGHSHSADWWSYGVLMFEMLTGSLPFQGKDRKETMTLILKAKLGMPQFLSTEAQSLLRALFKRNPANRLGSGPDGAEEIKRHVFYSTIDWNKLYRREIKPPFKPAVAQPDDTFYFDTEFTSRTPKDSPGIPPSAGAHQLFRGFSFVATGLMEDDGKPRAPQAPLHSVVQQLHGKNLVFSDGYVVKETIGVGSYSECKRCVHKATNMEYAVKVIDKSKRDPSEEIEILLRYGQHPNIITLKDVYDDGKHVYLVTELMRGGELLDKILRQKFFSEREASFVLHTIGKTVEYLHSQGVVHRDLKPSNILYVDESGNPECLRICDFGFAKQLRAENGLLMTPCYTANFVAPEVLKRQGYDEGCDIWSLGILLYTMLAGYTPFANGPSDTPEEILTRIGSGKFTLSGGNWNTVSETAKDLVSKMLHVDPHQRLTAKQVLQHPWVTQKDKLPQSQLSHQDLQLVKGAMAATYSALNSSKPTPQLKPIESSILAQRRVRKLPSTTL
In assay [3] the target is Protein-tyrosine kinase 6 (Homo sapiens) (UniProt Q13882). The following applies: Compound concentration 100.0 nM.
Sequence of Protein-tyrosine kinase 6 (Homo sapiens) (Q13882 whole entry, looked up): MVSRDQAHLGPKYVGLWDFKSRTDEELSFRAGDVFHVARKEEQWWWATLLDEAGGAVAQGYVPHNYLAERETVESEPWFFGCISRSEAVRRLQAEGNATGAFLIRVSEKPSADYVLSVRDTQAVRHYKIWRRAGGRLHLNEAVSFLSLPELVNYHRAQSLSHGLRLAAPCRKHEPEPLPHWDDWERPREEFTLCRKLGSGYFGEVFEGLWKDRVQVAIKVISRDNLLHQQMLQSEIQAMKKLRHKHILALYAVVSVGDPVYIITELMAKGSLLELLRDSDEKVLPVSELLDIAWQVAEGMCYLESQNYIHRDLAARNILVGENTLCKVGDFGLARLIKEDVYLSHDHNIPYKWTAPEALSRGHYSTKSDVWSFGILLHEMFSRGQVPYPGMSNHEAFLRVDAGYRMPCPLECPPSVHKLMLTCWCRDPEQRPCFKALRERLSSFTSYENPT
Assay [4] is described as follows: GPCRScan assay: inhibition of GABA/PBR. Details: species or system Rattus norvegicus; radioligand conc. used [nm] 0.3 – 2.0, parental cells brain tissue.
Assay [5] has as its target Muscarinic acetylcholine receptor M2 (Homo sapiens) (UniProt P08172). The following applies: Compound concentration 10.0 uM.
The target of assay [6] is Muscarinic acetylcholine receptor M1 (Homo sapiens) (UniProt P11229). Conditions: Compound concentration 10.0 uM.
The target in assay [7] is 5-hydroxytryptamine receptor 2B (Homo sapiens, UniProt P41595). In words: GPCRScan assay: inhibition of 5-HT2B. Set-up: radioligand conc. used [nm] 1.0 – 2.0, parental cells stable HEK.
The target of assay [8] is Serine/threonine-protein kinase SIK1 (Homo sapiens) (UniProt P57059). Conditions: Compound concentration 100.0 nM.
Sequence of Serine/threonine-protein kinase SIK1 (Homo sapiens) (P57059 whole entry): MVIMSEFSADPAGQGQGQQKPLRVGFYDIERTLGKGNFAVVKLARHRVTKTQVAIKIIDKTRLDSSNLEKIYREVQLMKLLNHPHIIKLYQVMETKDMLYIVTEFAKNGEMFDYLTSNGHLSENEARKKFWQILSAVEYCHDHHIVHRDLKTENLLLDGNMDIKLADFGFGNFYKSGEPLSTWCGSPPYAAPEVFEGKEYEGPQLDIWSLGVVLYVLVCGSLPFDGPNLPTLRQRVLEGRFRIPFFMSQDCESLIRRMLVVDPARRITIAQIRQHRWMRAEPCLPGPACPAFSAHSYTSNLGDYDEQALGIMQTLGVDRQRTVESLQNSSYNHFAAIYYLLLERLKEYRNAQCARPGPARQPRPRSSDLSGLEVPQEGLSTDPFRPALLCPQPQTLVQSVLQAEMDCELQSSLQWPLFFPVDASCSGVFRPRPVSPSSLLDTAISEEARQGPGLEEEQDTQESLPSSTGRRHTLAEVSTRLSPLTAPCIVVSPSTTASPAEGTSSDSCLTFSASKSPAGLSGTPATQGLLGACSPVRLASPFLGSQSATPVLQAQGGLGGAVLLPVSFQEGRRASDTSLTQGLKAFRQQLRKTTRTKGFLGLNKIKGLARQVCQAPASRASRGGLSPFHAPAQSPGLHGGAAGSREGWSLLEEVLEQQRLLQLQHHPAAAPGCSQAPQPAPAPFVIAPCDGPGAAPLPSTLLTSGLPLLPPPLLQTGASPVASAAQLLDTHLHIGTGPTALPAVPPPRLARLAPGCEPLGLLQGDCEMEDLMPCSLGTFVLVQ
The target of assay [9] is D(2) dopamine receptor (Homo sapiens) (UniProt P14416). The following applies: Compound concentration 10.0 uM.
Assay [10] addresses LIM domain kinase 1 (Homo sapiens, UniProt P53667). In words: Inhibition of LIMK1 at compound concentration of 10.0 uM using the ScanMax (DiscoverX).
Assay [11] has as its target Hepatocyte growth factor receptor (Homo sapiens) (UniProt P08581). Conditions: Compound concentration 100.0 nM.
Assay [12] deals with 5-hydroxytryptamine receptor 6 (Homo sapiens) (UniProt P50406). The following applies: Compound concentration 10.0 uM.
The target in assay [13] is Myosin light chain kinase 2, skeletal/cardiac muscle (Homo sapiens) (UniProt Q9H1R3). Conditions: Compound concentration 100.0 nM.
The target in assay [14] is Epidermal growth factor receptor (Homo sapiens) (UniProt P00533). The following applies: Compound concentration 100.0 nM.
Assay [15] has as its target Serine/threonine-protein kinase 32B (Homo sapiens) (UniProt Q9NY57). Conditions: Compound concentration 100.0 nM.
In assay [16] the target is Ribosomal protein S6 kinase beta-1 (Homo sapiens) (UniProt P23443). Conditions: Compound concentration 100.0 nM.
Assay [17] addresses Homeodomain-interacting protein kinase 4 (Homo sapiens) (UniProt Q8NE63). The following applies: Compound concentration 100.0 nM.
Assay [18] concerns the target Protein kinase C theta type (Homo sapiens) (UniProt Q04759). Conditions: Compound concentration 100.0 nM.
In assay [19] the target is Serine/threonine-protein kinase Chk1 (Homo sapiens) (UniProt O14757). Conditions: Compound concentration 100.0 nM.
Assay [20] concerns the target Delta-type opioid receptor (Homo sapiens) (UniProt P41143). The following applies: Compound concentration 10.0 uM.
Assay [21] deals with Tyrosine-protein kinase Fgr (Homo sapiens, UniProt P09769). Nature of the assay: Invitrogen kinase assay (FGR).
Assay [22] has as its target Tyrosine-protein kinase Fer (Homo sapiens, UniProt P16591). In words: Invitrogen kinase assay (FER).
Assay [23] has as its target Sodium-dependent noradrenaline transporter (Homo sapiens, UniProt P23975). Nature of the assay: GPCRScan assay: inhibition of NET. Details: radioligand conc. used [nm] 1.3 – 5.0, parental cells stable HEK.
In assay [24] the target is Tyrosine-protein kinase Fyn (Homo sapiens, UniProt P06241). Nature of the assay: Invitrogen kinase assay (FYN).
Assay [25] addresses Proto-oncogene tyrosine-protein kinase Src (Homo sapiens, UniProt P12931). In words: Invitrogen kinase assay (SRC).
The target of assay [26] is NT-3 growth factor receptor (Homo sapiens, UniProt Q16288). Nature of the assay: Invitrogen kinase assay (NTRK3).
The target of assay [27] is Tyrosine-protein kinase ZAP-70 (Homo sapiens, UniProt P43403). Nature of the assay: Invitrogen kinase assay (ZAP70).
Assay [28] has as its target Tyrosine-protein kinase JAK2 (Homo sapiens, UniProt O60674). In words: Invitrogen kinase assay (JAK2).
Assay [29] has as its target High affinity nerve growth factor receptor (Homo sapiens, UniProt P04629). In words: Invitrogen kinase assay (NTRK1).
The target of assay [30] is Tyrosine-protein kinase SYK (Homo sapiens, UniProt P43405). In words: Inhibition of SYK at compound concentration of 10.0 uM using the ScanMax (DiscoverX).
Assay [31] has as its target 5-hydroxytryptamine receptor 1E (Homo sapiens) (UniProt P28566). The following applies: Compound concentration 10.0 uM.

Sequence of Serine/threonine-protein kinase Nek7 (Homo sapiens) (Q8TDX7 whole entry, looked up): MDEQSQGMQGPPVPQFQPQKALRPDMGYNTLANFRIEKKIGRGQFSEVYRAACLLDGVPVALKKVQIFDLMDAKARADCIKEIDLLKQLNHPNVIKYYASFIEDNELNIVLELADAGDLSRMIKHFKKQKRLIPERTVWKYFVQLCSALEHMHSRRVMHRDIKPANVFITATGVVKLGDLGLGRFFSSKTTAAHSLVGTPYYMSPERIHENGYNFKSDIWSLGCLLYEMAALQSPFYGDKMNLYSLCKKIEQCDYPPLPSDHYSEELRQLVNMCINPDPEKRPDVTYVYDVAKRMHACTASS
Sequence of Homeodomain-interacting protein kinase 4 (Homo sapiens) (Q8NE63 whole entry): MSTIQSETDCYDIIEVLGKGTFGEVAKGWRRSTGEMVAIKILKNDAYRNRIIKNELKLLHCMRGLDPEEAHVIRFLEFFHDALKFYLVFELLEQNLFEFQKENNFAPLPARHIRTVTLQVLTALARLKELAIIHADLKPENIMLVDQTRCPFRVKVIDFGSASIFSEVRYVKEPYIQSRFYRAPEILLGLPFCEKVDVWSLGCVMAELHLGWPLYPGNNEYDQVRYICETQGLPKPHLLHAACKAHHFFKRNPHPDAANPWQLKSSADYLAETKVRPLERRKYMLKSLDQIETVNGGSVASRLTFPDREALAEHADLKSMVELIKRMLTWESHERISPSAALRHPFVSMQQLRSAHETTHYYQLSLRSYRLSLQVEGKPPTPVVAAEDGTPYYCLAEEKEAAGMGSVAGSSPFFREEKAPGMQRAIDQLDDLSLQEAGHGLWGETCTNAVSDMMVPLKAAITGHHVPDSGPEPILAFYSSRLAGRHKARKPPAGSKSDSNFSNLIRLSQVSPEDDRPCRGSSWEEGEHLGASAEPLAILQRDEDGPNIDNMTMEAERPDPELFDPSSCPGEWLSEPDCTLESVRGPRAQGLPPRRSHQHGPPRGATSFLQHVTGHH
Sequence of Delta-type opioid receptor (Homo sapiens) (P41143 whole entry): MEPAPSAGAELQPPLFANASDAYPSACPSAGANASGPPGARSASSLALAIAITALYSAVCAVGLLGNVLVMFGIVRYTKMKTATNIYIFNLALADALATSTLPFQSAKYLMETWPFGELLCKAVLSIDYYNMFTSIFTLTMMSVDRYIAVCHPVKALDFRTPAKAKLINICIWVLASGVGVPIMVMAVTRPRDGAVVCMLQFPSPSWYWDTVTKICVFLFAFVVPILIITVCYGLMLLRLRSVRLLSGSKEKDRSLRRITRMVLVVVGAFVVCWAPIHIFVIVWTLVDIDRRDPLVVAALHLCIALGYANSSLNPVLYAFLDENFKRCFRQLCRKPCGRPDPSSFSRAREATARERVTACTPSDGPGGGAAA
Sequence of Hepatocyte growth factor receptor (Homo sapiens) (P08581 whole entry): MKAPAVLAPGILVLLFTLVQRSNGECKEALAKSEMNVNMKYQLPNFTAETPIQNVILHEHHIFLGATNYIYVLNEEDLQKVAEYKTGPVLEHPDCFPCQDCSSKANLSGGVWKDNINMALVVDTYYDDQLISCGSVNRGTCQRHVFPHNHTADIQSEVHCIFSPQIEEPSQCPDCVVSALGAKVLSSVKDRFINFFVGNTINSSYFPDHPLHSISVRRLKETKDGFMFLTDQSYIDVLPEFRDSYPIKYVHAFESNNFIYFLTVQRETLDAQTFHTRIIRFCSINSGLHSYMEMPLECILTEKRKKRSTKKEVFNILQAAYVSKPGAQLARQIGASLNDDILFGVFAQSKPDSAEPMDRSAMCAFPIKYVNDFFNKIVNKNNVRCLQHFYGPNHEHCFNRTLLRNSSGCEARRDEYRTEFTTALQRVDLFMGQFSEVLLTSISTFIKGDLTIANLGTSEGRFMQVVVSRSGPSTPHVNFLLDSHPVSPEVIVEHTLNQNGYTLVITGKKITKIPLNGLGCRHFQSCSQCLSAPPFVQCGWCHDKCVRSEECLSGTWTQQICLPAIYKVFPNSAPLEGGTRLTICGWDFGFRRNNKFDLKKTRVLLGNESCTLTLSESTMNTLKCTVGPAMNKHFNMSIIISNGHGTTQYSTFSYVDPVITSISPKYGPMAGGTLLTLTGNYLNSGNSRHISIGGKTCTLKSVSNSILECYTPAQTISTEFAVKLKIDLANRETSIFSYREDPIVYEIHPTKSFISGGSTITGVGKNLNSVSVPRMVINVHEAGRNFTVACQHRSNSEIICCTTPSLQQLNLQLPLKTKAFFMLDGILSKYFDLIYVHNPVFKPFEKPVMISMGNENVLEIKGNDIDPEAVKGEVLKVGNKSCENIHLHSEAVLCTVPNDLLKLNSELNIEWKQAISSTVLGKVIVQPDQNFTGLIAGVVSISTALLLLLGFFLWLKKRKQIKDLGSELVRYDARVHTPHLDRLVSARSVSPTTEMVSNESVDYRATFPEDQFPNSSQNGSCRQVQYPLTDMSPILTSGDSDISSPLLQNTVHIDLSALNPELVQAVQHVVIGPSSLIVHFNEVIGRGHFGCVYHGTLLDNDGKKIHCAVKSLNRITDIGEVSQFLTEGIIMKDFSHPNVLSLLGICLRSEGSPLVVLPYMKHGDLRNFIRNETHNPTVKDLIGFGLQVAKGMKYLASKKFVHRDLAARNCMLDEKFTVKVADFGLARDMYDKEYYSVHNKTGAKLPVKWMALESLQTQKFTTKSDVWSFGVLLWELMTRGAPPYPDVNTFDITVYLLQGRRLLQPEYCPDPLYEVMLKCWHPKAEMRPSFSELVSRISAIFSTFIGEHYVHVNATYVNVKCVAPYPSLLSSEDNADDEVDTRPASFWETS
Sequence of 5-hydroxytryptamine receptor 1E (Homo sapiens) (P28566 whole entry): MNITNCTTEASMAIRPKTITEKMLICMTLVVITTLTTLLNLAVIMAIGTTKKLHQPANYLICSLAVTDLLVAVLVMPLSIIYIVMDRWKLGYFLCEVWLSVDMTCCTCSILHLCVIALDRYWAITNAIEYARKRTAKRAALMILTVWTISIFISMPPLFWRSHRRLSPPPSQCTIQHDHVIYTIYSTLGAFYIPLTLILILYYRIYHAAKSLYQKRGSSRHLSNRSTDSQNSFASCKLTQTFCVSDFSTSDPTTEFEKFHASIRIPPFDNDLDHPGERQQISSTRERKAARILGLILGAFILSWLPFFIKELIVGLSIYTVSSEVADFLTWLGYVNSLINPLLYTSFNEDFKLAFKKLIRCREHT

`Cc1ccc(-c2cnc([C@@]3(O)CC[C@H](C(=O)O)C(C)(C)C3)s2)cc1Nc1cccc(C(F)(F)F)n1` [MRL-SYKi-NC]: the residual activity (as a rule, the activity still measured, relative to the control) is 75.7% in assay [1]; 100% in [2]; 100% in assay [3]; 100% in [8]; 100% in assay [11]; 90.9% in assay [13]. The residual activity in assay [14] was 69.4%; in assay [15], 63.9%; in assay [16], 85.9%; in [17], 97.7%; in [18], 100%; in [19], 100%. Moreover, the Ki (in general, the dissociation constant of the complex between target and ligand, obtained from inhibition or displacement) in assay [4] amounted to 774 nM; in [7], 1060 nM. In addition, the pKi (usually −log10 of the Ki, conventionally taken in molar units) in assay [4] was found to be 6.11. In addition, the inhibition (usually the relative decrease from the control value, in per cent) in [5] is 23%; in assay [6] it was -6.43%; in assay [9], -5.34%; in [12] it was 6.66%; in assay [20], 25.1%. In addition, in assay [10], the Kd – broadly, a measure of binding affinity in units of concentration – is > 10000 nM (not active).

On to `Cc1cc(Nc2nccc(C)n2)cc(-c2cnc([C@@]3(O)CC[C@H](C(=O)O)C(C)(C)C3)s2)c1` [MRL-SYKi], for which the residual activity is 92.9% in assay [1]; 100% in [2]; 100% in assay [3]; 94.3% in [8]; 100% in [11]; 100% in [13]. Further, the residual activity in assay [14] is 100%; in assay [15], 100%; in [16], 78.2%; in [17], 75.6%; in assay [18] it was 39.9%; in assay [19], 100%. Besides, the half-inhibitory concentration (IC50) – broadly, the concentration that inhibits the measured activity by half – in [21] was 185 nM (not active); in assay [22], 232 nM (not active); in assay [24], 205 nM (not active); in [25], 100 nM (not active); in [26] it was 120 nM (not active); in [27] it was 24 nM (active). Moreover, the IC50 in [28] was 242 nM (not active); in assay [29], 105 nM (not active). Further, the Ki in [23] was found to be 7710 nM. The inhibition is 8.6% in assay [5], -3.52% in [9], 12.8% in [20] and 11.4% in [31]. Further, the Kd in assay [30] was 1.8 nM (active).
